Measurements from PubChem BioAssay (NCI).
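How tested: cells in 96-well plates exposed to compound for 48 hours at five concentrations. GI50: concentration for 50% inhibition of growth. TGI: concentration producing complete growth inhibition.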

Key:
Assay in all cases: NCI-60 cell line screen, 48 h
MDA-MB-435 = system: MDA-MB-435
MALME-3M melanoma = system: MALME-3M melanoma
OVCAR-5 ovarian = system: OVCAR-5 ovarian
786-0 renal = system: 786-0 renal
MDA-MB-231 breast = system: MDA-MB-231 breast
RPMI-8226 leukemia = system: RPMI-8226 leukemia
KM12 colon = system: KM12 colon
A549 NSCLC = system: A549 NSCLC
A498 renal = system: A498 renal
OVCAR-3 ovarian = system: OVCAR-3 ovarian
SF-539 CNS = system: SF-539 CNS
RXF 393 renal = system: RXF 393 renal
DU-145 prostate = system: DU-145 prostate
U251 CNS = system: U251 CNS
UACC-62 melanoma = system: UACC-62 melanoma
MCF7 breast = system: MCF7 breast
SW-620 colon = system: SW-620 colon
NCI-H460 lung = system: NCI-H460 lung
SK-OV-3 ovarian = system: SK-OV-3 ovarian
MOLT-4 leukemia = system: MOLT-4 leukemia
NCI-H226 lung = system: NCI-H226 lung
HL-60(TB) leukemia = system: HL-60(TB) leukemia
SNB-19 CNS = system: SNB-19 CNS
HT29 colon = system: HT29 colon
SF-268 CNS = system: SF-268 CNS
NCI-H23 lung = system: NCI-H23 lung
UO-31 renal = system: UO-31 renal
NCI/ADR-RES ovarian = system: NCI/ADR-RES ovarian
T-47D breast = system: T-47D breast
HCT-116 colon = system: HCT-116 colon
SN12C renal = system: SN12C renal
TK-10 renal = system: TK-10 renal
HCC-2998 colon = system: HCC-2998 colon
IGROV1 ovarian = system: IGROV1 ovarian
CAKI-1 renal = system: CAKI-1 renal
HOP-92 NSCLC = system: HOP-92 NSCLC
UACC-257 melanoma = system: UACC-257 melanoma
LOX IMVI melanoma = system: LOX IMVI melanoma
SF-295 CNS = system: SF-295 CNS
K-562 leukemia = system: K-562 leukemia
HOP-62 NSCLC = system: HOP-62 NSCLC
MDA-MB-468 breast = system: MDA-MB-468 breast
OVCAR-4 ovarian = system: OVCAR-4 ovarian
SK-MEL-2 melanoma = system: SK-MEL-2 melanoma
OVCAR-8 ovarian = system: OVCAR-8 ovarian
SK-MEL-28 melanoma = system: SK-MEL-28 melanoma
SK-MEL-5 melanoma = system: SK-MEL-5 melanoma
COLO 205 colon = system: COLO 205 colon
HCT-15 colon = system: HCT-15 colon
EKVX NSCLC = system: EKVX NSCLC
PC-3 prostate = system: PC-3 prostate
CCRF-CEM leukemia = system: CCRF-CEM leukemia
ACHN renal = system: ACHN renal
HS 578T breast = system: HS 578T breast
NCI-H522 lung = system: NCI-H522 lung
M14 melanoma = system: M14 melanoma
SNB-75 CNS = system: SNB-75 CNS
BT-549 breast = system: BT-549 breast

In the case of `Cc1ccc2nc(-c3ccc(-c4nnc(SCC(=O)Nc5ccc(Cl)cc5)o4)cc3)[nH]c2c1`, the GI50 (MDA-MB-435) is reported as 6.5 µM, the TGI (MDA-MB-435) is reported as 20.2 µM and the GI50 (MALME-3M melanoma) is reported as 10.4 µM. It also gave a TGI (MALME-3M melanoma) of 22.2 µM, a GI50 (OVCAR-5 ovarian) of 15.4 µM and a TGI (OVCAR-5 ovarian) of 38.3 µM. The GI50 (786-0 renal) was 3.05 µM, the TGI (786-0 renal) was 10.7 µM and the GI50 (MDA-MB-231 breast) was 4.37 µM. For the same compound, the TGI (MDA-MB-231 breast) was 16 µM, the GI50 (RPMI-8226 leukemia) was 9.08 µM and the TGI (RPMI-8226 leukemia) was > 100 µM. For the same compound, the GI50 (KM12 colon) was 13.3 µM, the TGI (KM12 colon) was 39 µM and the GI50 (A549 NSCLC) was 3.09 µM. The TGI (A549 NSCLC) was 12.5 µM, the GI50 (A498 renal) was 16.3 µM and the TGI (A498 renal) was 31.4 µM. It also gave a GI50 (OVCAR-3 ovarian) of 7.37 µM, a TGI (OVCAR-3 ovarian) of 22.4 µM and a GI50 (SF-539 CNS) of 10.9 µM. It also gave a TGI (SF-539 CNS) of 23.1 µM, a GI50 (RXF 393 renal) of 4.41 µM and a TGI (RXF 393 renal) of 16.5 µM. The GI50 (DU-145 prostate) was 7.92 µM, the TGI (DU-145 prostate) was 47.7 µM and the GI50 (U251 CNS) was 3.23 µM. It also gave a TGI (U251 CNS) of 14.2 µM, a GI50 (UACC-62 melanoma) of 10.1 µM and a TGI (UACC-62 melanoma) of 21.8 µM. The GI50 (MCF7 breast) was 4 µM, the TGI (MCF7 breast) was 16.7 µM and the GI50 (SW-620 colon) was 3.73 µM. The TGI (SW-620 colon) was 19.5 µM, the GI50 (NCI-H460 lung) was 3.67 µM and the TGI (NCI-H460 lung) was 15.8 µM. The GI50 (SK-OV-3 ovarian) was 7.48 µM, the TGI (SK-OV-3 ovarian) was 25.4 µM and the GI50 (MOLT-4 leukemia) was 7.02 µM. It also gave a TGI (MOLT-4 leukemia) of 75 µM, a GI50 (NCI-H226 lung) of 2.96 µM and a TGI (NCI-H226 lung) of 9.92 µM. For the same compound, the GI50 (HL-60(TB) leukemia) was 18.5 µM, the TGI (HL-60(TB) leukemia) was > 100 µM and the GI50 (SNB-19 CNS) was 6.93 µM. For the same compound, the TGI (SNB-19 CNS) was 23.8 µM, the GI50 (HT29 colon) was 4.73 µM and the TGI (HT29 colon) was 19.3 µM. It also gave a GI50 (SF-268 CNS) of 15.7 µM, a TGI (SF-268 CNS) of 40.3 µM and a GI50 (NCI-H23 lung) of 4.37 µM. It also gave a TGI (NCI-H23 lung) of 16.6 µM, a GI50 (UO-31 renal) of 10.6 µM and a TGI (UO-31 renal) of 22.7 µM. It also gave a GI50 (NCI/ADR-RES ovarian) of 4.13 µM, a TGI (NCI/ADR-RES ovarian) of 14.6 µM and a GI50 (T-47D breast) of 18.1 µM. For the same compound, the TGI (T-47D breast) was 69.7 µM, the GI50 (HCT-116 colon) was 3.01 µM and the TGI (HCT-116 colon) was 15.2 µM. The GI50 (SN12C renal) was 4.21 µM, the TGI (SN12C renal) was 15.8 µM and the GI50 (TK-10 renal) was 6.8 µM. For the same compound, the TGI (TK-10 renal) was 20.6 µM, the GI50 (HCC-2998 colon) was 10.6 µM and the TGI (HCC-2998 colon) was 23.7 µM. It also gave a GI50 (IGROV1 ovarian) of 5.9 µM, a TGI (IGROV1 ovarian) of 19 µM and a GI50 (CAKI-1 renal) of 3.59 µM. The TGI (CAKI-1 renal) was 15.9 µM, the GI50 (HOP-92 NSCLC) was 5.99 µM and the TGI (HOP-92 NSCLC) was 24.4 µM. The GI50 (UACC-257 melanoma) was 15.2 µM, the TGI (UACC-257 melanoma) was 31.5 µM and the GI50 (LOX IMVI melanoma) was 2.17 µM. It also gave a TGI (LOX IMVI melanoma) of 5.64 µM, a GI50 (SF-295 CNS) of 3.25 µM and a TGI (SF-295 CNS) of 12.4 µM. For the same compound, the GI50 (K-562 leukemia) was 3.88 µM, the TGI (K-562 leukemia) was > 100 µM and the GI50 (HOP-62 NSCLC) was 5.43 µM. It also gave a TGI (HOP-62 NSCLC) of 23.5 µM, a GI50 (MDA-MB-468 breast) of 4.99 µM and a TGI (MDA-MB-468 breast) of 17.6 µM. For the same compound, the GI50 (OVCAR-4 ovarian) was 8.99 µM, the TGI (OVCAR-4 ovarian) was 28.7 µM and the GI50 (SK-MEL-2 melanoma) was 15.5 µM. For the same compound, the TGI (SK-MEL-2 melanoma) was 33.4 µM, the GI50 (OVCAR-8 ovarian) was 4.84 µM and the TGI (OVCAR-8 ovarian) was 16.9 µM. The GI50 (SK-MEL-28 melanoma) was 7.41 µM, the TGI (SK-MEL-28 melanoma) was 20.2 µM and the GI50 (SK-MEL-5 melanoma) was 12.3 µM. It also gave a TGI (SK-MEL-5 melanoma) of 26.4 µM, a GI50 (COLO 205 colon) of 9.86 µM and a TGI (COLO 205 colon) of 30.8 µM. It also gave a GI50 (HCT-15 colon) of 7.87 µM, a TGI (HCT-15 colon) of 21.2 µM and a GI50 (EKVX NSCLC) of 6.56 µM. It also gave a TGI (EKVX NSCLC) of 21.5 µM, a GI50 (PC-3 prostate) of 3.73 µM and a TGI (PC-3 prostate) of 20.5 µM. For the same compound, the GI50 (CCRF-CEM leukemia) was 5.91 µM, the TGI (CCRF-CEM leukemia) was > 100 µM and the GI50 (ACHN renal) was 4 µM. For the same compound, the TGI (ACHN renal) was 15.3 µM, the GI50 (HS 578T breast) was 10.2 µM and the TGI (HS 578T breast) was 37.3 µM. It also gave a GI50 (NCI-H522 lung) of 10.2 µM, a TGI (NCI-H522 lung) of 24.9 µM and a GI50 (M14 melanoma) of 5.75 µM. It also gave a TGI (M14 melanoma) of 25.4 µM, a GI50 (SNB-75 CNS) of 10.5 µM and a TGI (SNB-75 CNS) of 23.9 µM. For the same compound, the GI50 (BT-549 breast) was 16.4 µM and the TGI (BT-549 breast) was 32.4 µM.
